Experimental data from patent publication US20110159515A1, “COMPOSITIONS AND METHODS FOR THE RAPID GROWTH AND DETECTION OF MICROORGANISMS” (SOLUS SCIENTIFIC SOLUTIONS LIMITED, priority 2008, published 2011).

Experiments:
L. innocua = assay: Direct binding Salmonella assay (chemiluminescence immunosorbent); conditions: 10^6 L. innocua
Experimental: (§1) The sample was heated to 100° C. for 5 minutes and allowed to cool. One hundred microlitres of each test sample was added directly to a well of a solid white 96 well high binding microtitre plate (Greiner Bio One) and incubated at 37° C. for 30 minutes. During incubation, the lipid A portion of the LPS binds to the surface of the plate via non-covalent hydrophobic interactions (FIG. 1a (1), FIG. 1b(1)).
(§2) The final concentration of antibody per well was 50 ng. The plate-bound sample (Salmonella LPS/core oligosaccharide) and antibody were incubated in the coated wells for 30 minutes as 37° C. Following incubation, plates were washed three times in wash buffer and pat dried prior to detection (FIG. 1a(2), FIG. 1b(2)).
(§3) When the anti-Salmonella is directly labelled with acridinium ester, plates were placed into a luminometer. 30 μl of trigger solution A and 60 μl of trigger solution B was added to each well of the microtitre plate to initiate light output from conjugated acridinium ester (FIG. 1a(3)). The luminometer settings were as follows:
(§4) When the anti-Salmonella antibody is not labelled, a second binding member, a goat anti-mouse IgG2b conjugate is used. Post column IgG2b was diluted 1:100 in a diluent comprising 3% (w/v) non-fat milk powder and 0.05% (v/v) Tween 20 and 100 ul of this solution was added to each well of the plate (FIG. 1b(3)). Following incubation at 37° C. for 60 minutes the plate was washed four times in wash buffer, dried and read as above (FIG. 1b(4)).
Monoclonal antibody (1:100 dilution) was incubated with either Salmonella or Listeria to determine optimum incubation times:
Monoclonal antibody (1:200 dilution) was incubated with either Salmonella or Listeria to determine optimum incubation times: […]

S. aberdeen = assay: as above
Experimental: as §1, with “After 5 hours of culture, a 2 ml aliquot of the sample was removed and SDS was added to a final concentration of 0.5% (w/v). The” for “The”
as §2, §3, §4
The wells of an assay plate are coated with standard concentrations of bacteria for 1 hour at 37° C. These standard concentrations are: 10^6, 10^5, 5×10^4, 2.5×10^4, 10^4 and 5×10^3 and blank wells containing 10^6 E. coli. The fractions to be tested are diluted 1:100 in assay buffer and […] is added to each well and incubated at 37° C. for 20 minutes. The wells are then read on the luminometer, as above.

CCCCCCCCCCCCOS(=O)(=O)[O-].[Na+] [SDS, sodium dodecyl sulphate]
signal, release and detection of core oligosaccharide (L. innocua; 0.1% SDS): 7863 relative light units
signal, release and detection of core oligosaccharide (L. innocua; 0.5% SDS): 8051 relative light units
signal, direct binding Salmonella assay (S. aberdeen; 0.5% SDS (second block), conjugate 1:100, 5 × 10^4 S. aberdeen, black and white plates): 2,213 ± 170
signal, release and detection of core oligosaccharide (S. aberdeen; 0.5% SDS, 10^4 bacteria (species not given)): 495603 relative light units
enhancement of binding between binding member (antibody) and epitope (S. aberdeen; direct assay): ≤ 10 fold
